Like-named read-outs stand apart in the source and are kept apart here. Where no end group is shown, it is not given here.
Tests used:
BxPC-3 cells = assay: Binding of peptide-IRDye conjugates to cultured BxPC-3 cells; format: cell-based, human; conditions: BxPC-3 (αvβ6+ αvβ8-), 1 h at 37° C.
Experimental: (§1) B) Binding of the indicated peptide-IRDye conjugates to the various cell lines. Various amounts of conjugates were added to cell monolayers (grown in 96-well microtiter plates) and incubated for 1 h at 37° C., 5% CO2 (see Experimental section). After washing, bound fluorescence was measured using an Odyssey CLx (LI-COR) scanner. A representative image of the scanned plate and binding quantification are reported. Mean ±SE of quadruplicate wells.
(§2) Various amounts of unlabeled peptides were mixed 5a-IRDye (4 nM) and added to the cells. After 1 h, the plates were washed, and the bound fluorescence was quantified as described above (left panels).
(§3) The binding of peptide-IRDye conjugates to BxPC-3, 5637, HUVECs, 4T1, K8484 and DT6606 cells was analyzed as follows. The cells were grown in 96-well clear-bottom black microtiterplates (Corning® cat. 3603, 2-3x10^4 cells/well, plated 48 h before the experiment). After washing twice with 0.9% sodium chloride solution, the cells were incubated with 25 mM Hepes buffer, pH 7.4, containing 150 mM sodium chloride, 1 mM magnesium chloride, 1 mM manganese chloride and 1% BSA (binding buffer) for 5 min. Peptide-IRDye conjugates (0.013-40 nM in binding buffer) were then added to the cells and left to incubate for 1 h at 37° C., 5% CO2. After three washings with binding buffer (5 min each, 200 al/well), the cells were fixed with PBS containing 2% paraformaldehyde and 3% sucrose for 15 min at room temperature. Binding of conjugates to cells was quantified by scanning the plate (filled with PBS, 100 al/well) with the Odyssey CLx (LI-COR) using the following settings: scan intensity, 8.5; scan focus offset 4; scan quality, highest; channel, 800; resolution, 169 pm. Then, the plates were incubated with 5 μg/ml of 4′,6-diamidino-2-phenylindole (DAPI) for 15 min, washed twice with PBS and read with a VICTOR3 plate reader (Perkin Elmer, Waltham, Mass., USA) to quantify the cell number in each well, using the following filters: excitation, 355±40 nm; emission, 460±25 nm (acquisition,1 s).

αvβ6 [1] = molecular target: T1, αvβ6 (Homo sapiens, UniProt P06756+P18564); assay: Direct binding of peptide-IRDye conjugates to αvβ6-coated microtiter plates; conditions: purified integrin
T1 construct: recombinant human αvβ6 extracellular domain (R&D Systems); purchased R&D Systems (Minneapolis, Minn.)
Experimental: (§4) Binding of 5a-IRDye and 2a-IRDye to microtiterplates coated with or without αvβ6 or αvβ8 as indicated in each panel. Various amounts of conjugates were added to microtiterplates and incubated for 1 h at room temperature (see Experimental section). After washing, bound fluorescence was measured using an Odyssey CLx (LI-COR) scanner. Representative images of the scanned plate and quantification of the binding are reported. Mean ±SE of triplicates. Effective concentration 50 (EC50, mean±SD) of the indicated number of independent experiments is shown.
(§5) Binding of 5a-IRDye, 2a-IRDye and Cys-IRDye to αvβ6 and αvβ8 was determined by direct binding assays as follows: 96-well clear-bottom black microtiterplates (Corning® cat. 3601) were coated with 4 μg/ml αvβ6 or αvβ8, in Dulbecco's phosphate-buffered saline with Ca2+ and Mg2+(DPBS, 50 ul/well) and left to incubate over-night at 4° C. […] The bound fluorescence was then quantified by scanning the empty plates with an Odyssey CLx near-infrared fluorescence imaging system (LI-COR) using the following settings: scan intensity, 8.5; scan focus offset, 3; scan quality, highest; channel, 800; resolution, 169 pm.

5637 cells [2] = assay: Binding of peptide-IRDye conjugates to cultured 5637 cells; format: cell-based, human; conditions: 5637 (αvβ6+ αvβ8+), 1 h at 37° C.
Experimental: as §1, §2, §3

αvβ8 [3] = molecular target: T2, αvβ8 (Homo sapiens, UniProt P06756+P26012); assay: Direct binding of peptide-IRDye conjugates to αvβ8-coated microtiter plates; conditions: purified integrin
Experimental: as §4, §5

[4] = system: subcutaneous BxPC-3 tumors; conditions: mouse, in vivo
in vivo = conditions: female, NSG, mouse, iv, 1.28 nmol
HUVEC = assay: Binding of peptide-IRDye conjugates to cultured HUVEC; format: cell-based, human; conditions: HUVEC (lacking these integrins)
Experimental: as §1
The binding of peptide-IRDye conjugates to BxPC-3, 5637, HUVECs, 4T1, K8484 and DT6606 cells was analyzed as follows. The cells were grown in 96-well clear-bottom black microtiterplates (Corning® cat. 3603, 2-3x10^4 cells/well, plated 48 h before the experiment). […] Binding of conjugates to cells was quantified by scanning the plate (filled with PBS, 100 al/well) with the Odyssey CLx (LI-COR) using the following settings: scan intensity, 8.5; scan focus offset 4; scan quality, highest; channel, 800; resolution, 169 pm. Then, the plates were incubated with 5 μg/ml of 4′,6-diamidino-2-phenylindole (DAPI) for 15 min, washed twice with PBS and read with a VICTOR3 plate reader (Perkin Elmer, Waltham, Mass., USA) to quantify the cell number in each well, using the following filters: excitation, 355±40 nm; emission, 460±25 nm (acquisition,1 s).

5637 cells [5] = assay: Binding assay of 5-Qdot to human 5637 cells (FACS, fluorescence microscopy); format: cell-based; conditions: flow cytometry and fluorescence microscopy
Experimental: FIG. 3. Binding of CgA-derived peptides to human bladder cancer 5637 cells. a) Effect of 1, 4, 5 and 6 on the binding of anti-αvβ6 mAb 10D5 to 5637 cells. Antibody binding quantification as determined by flow cytometry analysis (FACS) (see also FIG. 11A). Compounds were mixed with mAb 10D5 and added to cells; mAb binding was detected by FACS and inhibitory concentration (IC50, mean±SEM) was determined. Each point is in duplicate. b) Binding of 5-Qdot or *Qdot (control) to 5637 cells as measured by FACS. Representative FACS (left and middle) and quantification of Qdot binding (right) (circles: mean±SD of duplicates). c) Representative fluorescence bioimaging of 5637 cells incubated with 5-Qdot, *Qdot or diluent. […]
Binding assays of 5-Qdot and *Qdot to 5637 cells were carried out as follows: 5637 cells were grown in chamber slides (6×10^4 cells/well). […] The cells were washed again with binding buffer, fixed with paraformaldehyde for 20 min, counterstained with DAPI (0.05 μg/ml, Invitrogen), and analyzed using a fluorescence microscopy (Carl Zeiss, Axioscop 40FL; excitation, filter, BP 560/40 nm; beam splitter filter, FT 585 nm; emission filter, 630/75 nm). […] After washing with 25 mM Hepes buffer, pH 7.4, containing 150 mM NaCl, 1 mM MgCl2, 1 mM MgCl2, the cells were fixed with formaldehyde and analyzed using the CytoFLEX S (Beckman Coulter).

αvβ5 = molecular target: T3, αvβ5 (Homo sapiens, UniProt P06756+P18084); conditions: Table 3a; Ki of 2 as determined in [21]; cited from earlier work
T3 construct: purchased Immunological Sciences (Rome, Italy)

αvβ6 [6] = molecular target: T1, αvβ6; assay: Competitive integrin binding assay (isoDGR/STV-HRP probe), αvβ6-coated plates; conditions: non-stapled control peptide with RGE
Experimental: (§6) Peptide binding was measured by a competitive binding assay using as integrin probe a complex made by a N-terminal acetylated isoDGR peptide biotinylated at the E-amino group of the lysine, acetyl-Ciso[…]-bio (SEQ ID No. 29), and a streptavidin-peroxidase conjugate (called isoDGR/STV-HRP)[43].
(§7) Each mixture was then added to integrin-coated wells and left to incubate for 2 h at room temperature. After washing with 25 mM Tris-HCl, pH 7.4, containing 150 mM sodium chloride, 1 mM magnesium chloride, 1 mM manganese chloride, each well was filled with a chromogenic solution (o-phenylenediamine dihydrochloride) and left to incubate for 30 min at room temperature. The chromogenic reaction was stopped by adding 1 N sulfuric acid. The absorbance at 490 nm was then measured using a microtiterplate reader. Ki values were calculated by non-linear regression analysis of competitive binding data using the “One site - Fit Ki” equation of the GraphPad Prism Software using the Kd values of the probe indicated above.

α5β1 = molecular target: T4, α5β1 (Homo sapiens, UniProt P05556+P08648); conditions: Table 3a; Ki of 2 as determined in [21]; cited from earlier work
T4 construct: purchased Immunological Sciences (Rome, Italy)

αvβ8 [7] = molecular target: T2, αvβ8; conditions: Table 3a; Ki of 2 as determined in [21]; cited from earlier work
αvβ3 = molecular target: T5, αvβ3 (Homo sapiens, UniProt P05106+P06756); conditions: Table 3a; Ki of 2 as determined in [21]; cited from earlier work
T5 construct: purchased Immunological Sciences (Rome, Italy)

αvβ8 [8] = molecular target: T2, αvβ8; assay: Competitive integrin binding assay (isoDGR/STV-HRP probe), αvβ8-coated plates; conditions: non-stapled control peptide with RGE
Experimental: as §6, §7

αvβ6 [9] = molecular target: T1, αvβ6; conditions: cited from earlier work

T2 sequence (P06756 31-992 limits assumed): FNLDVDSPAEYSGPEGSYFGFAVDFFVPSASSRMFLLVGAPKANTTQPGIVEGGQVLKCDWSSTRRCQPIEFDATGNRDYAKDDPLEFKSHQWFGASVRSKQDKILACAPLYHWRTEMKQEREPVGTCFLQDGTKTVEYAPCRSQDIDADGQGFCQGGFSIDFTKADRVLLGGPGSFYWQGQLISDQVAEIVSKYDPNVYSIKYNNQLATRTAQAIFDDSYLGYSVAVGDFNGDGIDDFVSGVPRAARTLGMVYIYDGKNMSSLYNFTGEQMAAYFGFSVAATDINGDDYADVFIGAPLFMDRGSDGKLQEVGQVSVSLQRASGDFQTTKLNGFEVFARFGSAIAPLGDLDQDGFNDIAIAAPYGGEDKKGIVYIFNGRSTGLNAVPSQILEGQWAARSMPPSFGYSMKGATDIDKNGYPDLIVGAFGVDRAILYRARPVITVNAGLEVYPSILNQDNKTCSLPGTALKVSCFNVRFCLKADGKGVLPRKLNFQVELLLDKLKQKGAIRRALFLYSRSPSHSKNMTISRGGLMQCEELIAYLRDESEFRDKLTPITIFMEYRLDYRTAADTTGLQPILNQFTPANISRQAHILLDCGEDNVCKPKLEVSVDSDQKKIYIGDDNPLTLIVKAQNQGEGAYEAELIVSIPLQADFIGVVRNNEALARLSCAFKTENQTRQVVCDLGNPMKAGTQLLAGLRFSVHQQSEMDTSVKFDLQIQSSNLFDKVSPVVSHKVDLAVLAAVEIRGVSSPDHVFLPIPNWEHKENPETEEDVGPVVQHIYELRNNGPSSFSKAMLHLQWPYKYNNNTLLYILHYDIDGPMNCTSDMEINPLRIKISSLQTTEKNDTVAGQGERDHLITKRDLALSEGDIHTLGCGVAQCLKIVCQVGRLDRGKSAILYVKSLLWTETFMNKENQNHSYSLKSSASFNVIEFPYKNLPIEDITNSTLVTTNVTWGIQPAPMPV
T2 sequence (P26012 43-684 limits assumed): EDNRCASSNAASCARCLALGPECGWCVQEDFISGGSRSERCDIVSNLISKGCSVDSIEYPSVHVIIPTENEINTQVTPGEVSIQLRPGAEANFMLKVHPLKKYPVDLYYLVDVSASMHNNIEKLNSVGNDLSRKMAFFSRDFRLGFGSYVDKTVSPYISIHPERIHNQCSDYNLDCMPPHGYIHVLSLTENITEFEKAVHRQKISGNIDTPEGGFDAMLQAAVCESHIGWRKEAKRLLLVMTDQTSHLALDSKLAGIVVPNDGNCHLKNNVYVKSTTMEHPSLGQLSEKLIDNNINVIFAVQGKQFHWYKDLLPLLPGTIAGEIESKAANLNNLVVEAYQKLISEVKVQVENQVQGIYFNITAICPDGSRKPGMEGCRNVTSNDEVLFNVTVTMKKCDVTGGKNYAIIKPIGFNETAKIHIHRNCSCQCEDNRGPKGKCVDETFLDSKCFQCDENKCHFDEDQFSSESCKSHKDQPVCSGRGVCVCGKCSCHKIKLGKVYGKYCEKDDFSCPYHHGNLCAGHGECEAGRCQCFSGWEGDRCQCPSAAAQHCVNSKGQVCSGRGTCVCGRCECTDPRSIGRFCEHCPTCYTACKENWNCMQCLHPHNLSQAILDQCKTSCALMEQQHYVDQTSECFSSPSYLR
T1 sequence (P06756 31-992 limits assumed): as the sequence (P06756 31-992 limits assumed) above
T1 sequence (P18564 22-709 limits assumed): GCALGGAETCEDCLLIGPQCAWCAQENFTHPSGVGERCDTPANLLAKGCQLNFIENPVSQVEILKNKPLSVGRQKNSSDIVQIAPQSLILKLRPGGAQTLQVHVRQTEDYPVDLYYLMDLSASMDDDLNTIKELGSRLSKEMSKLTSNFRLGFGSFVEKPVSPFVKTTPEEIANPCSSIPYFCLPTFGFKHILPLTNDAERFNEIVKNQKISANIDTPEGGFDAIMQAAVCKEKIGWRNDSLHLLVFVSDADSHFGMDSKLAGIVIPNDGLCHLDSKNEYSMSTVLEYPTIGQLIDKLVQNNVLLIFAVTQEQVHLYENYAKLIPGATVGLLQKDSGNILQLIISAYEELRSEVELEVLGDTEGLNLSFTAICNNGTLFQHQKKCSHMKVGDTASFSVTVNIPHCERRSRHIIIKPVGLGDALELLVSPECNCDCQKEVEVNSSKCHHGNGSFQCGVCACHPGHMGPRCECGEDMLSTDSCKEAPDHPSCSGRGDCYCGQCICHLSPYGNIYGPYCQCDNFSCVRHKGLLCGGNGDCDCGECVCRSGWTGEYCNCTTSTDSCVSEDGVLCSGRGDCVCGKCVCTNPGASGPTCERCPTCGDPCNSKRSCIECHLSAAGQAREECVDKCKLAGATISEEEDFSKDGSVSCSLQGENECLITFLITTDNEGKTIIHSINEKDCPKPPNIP
T4 sequence (P08648 42-894 limits assumed): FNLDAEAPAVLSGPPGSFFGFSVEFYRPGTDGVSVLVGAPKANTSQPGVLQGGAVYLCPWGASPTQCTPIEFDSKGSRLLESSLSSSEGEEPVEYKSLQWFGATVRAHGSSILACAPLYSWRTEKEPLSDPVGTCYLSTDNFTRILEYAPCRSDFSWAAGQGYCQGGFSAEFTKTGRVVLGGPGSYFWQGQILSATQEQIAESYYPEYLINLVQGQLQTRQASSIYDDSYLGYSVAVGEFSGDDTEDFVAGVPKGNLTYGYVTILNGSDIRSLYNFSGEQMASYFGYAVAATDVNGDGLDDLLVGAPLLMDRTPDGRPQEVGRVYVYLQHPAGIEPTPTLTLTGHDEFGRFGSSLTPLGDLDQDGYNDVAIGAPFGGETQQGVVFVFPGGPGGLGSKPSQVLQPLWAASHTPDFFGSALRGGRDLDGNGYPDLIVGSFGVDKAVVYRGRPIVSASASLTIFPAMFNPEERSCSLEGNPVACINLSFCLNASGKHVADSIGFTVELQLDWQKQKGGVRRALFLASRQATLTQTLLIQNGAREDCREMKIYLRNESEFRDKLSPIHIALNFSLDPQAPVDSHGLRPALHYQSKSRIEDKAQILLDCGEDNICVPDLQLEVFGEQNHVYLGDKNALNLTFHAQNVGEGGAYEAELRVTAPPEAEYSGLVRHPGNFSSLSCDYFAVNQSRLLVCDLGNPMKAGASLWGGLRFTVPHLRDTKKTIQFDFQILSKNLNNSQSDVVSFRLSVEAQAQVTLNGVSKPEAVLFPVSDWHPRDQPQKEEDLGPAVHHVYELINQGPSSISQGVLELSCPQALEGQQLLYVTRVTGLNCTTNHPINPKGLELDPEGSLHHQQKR
T4 sequence (P08648 895-1049 partner limits assumed): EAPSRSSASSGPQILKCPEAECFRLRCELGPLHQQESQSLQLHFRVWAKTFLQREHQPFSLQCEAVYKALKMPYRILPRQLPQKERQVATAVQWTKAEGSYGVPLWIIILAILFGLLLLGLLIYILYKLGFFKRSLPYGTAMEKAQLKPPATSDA
T4 sequence (P05556 21-798): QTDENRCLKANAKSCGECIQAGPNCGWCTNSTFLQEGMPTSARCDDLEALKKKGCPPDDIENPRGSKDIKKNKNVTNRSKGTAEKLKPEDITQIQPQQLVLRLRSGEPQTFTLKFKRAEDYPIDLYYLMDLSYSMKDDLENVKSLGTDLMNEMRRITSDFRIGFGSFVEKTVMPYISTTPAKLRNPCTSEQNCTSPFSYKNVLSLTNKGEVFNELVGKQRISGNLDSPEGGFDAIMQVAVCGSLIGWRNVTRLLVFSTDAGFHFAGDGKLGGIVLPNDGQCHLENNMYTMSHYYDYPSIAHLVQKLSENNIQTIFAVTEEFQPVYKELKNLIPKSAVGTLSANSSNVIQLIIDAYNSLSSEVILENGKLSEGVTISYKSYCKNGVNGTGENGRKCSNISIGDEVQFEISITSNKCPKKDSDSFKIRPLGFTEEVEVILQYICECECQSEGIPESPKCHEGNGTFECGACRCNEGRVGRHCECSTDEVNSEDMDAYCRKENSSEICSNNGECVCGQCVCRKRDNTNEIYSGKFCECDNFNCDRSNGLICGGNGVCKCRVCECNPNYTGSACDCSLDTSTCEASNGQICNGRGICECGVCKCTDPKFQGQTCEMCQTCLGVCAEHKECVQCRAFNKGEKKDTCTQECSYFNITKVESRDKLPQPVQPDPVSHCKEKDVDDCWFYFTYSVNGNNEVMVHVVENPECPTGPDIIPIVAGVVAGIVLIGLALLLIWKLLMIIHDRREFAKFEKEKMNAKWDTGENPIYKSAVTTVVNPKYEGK

2a-IRDye: control peptide 2a coupled via Cys to maleimide-IRDye 800CW (C(maleimide‑IRDye 800CW)FETLRGEERILSILRHQNLLKELQD) [reference compound]
binding of conjugate to cells (BxPC-3 cells): not | binding to αvβ6-coated plates (αvβ6 [1]): not | binding of conjugate to cells (5637 cells [2]): not | binding to αvβ8-coated plates (αvβ8 [3]): not

CC[C@H](C)[C@H](NC(=O)[C@H](CCCNC(=N)N)NC(=O)[C@H](CC(C)C)NC(=O)[C@H](CC(=O)O)NC(=O)CNC(=O)[C@H](CCCNC(=N)N)NC(=O)[C@H](CC(C)C)NC(=O)[C@@H](NC(=O)[C@H](CCC(=O)O)NC(=O)[C@H](Cc1ccccc1)NC(=O)[C@@H](N)CSC1CC(=O)N(CCNC(=O)CCCCCN2C(=CC=C3CCCC(C=CC4=[N+](CCCCS(=O)(=O)[O-])c5ccc(S(=O)(=O)O)cc5C4(C)C)=C3Oc3ccc(S(=O)(=O)O)cc3)C(C)(C)c3cc(S(=O)(=O)O)ccc32)C1=O)[C@@H](C)O)C(=O)N[C@@H](CC(C)C)C(=O)N[C@@H](CO)C(=O)N[C@H](C(=O)N[C@@H](CC(C)C)C(=O)N[C@@H](CCCNC(=N)N)C(=O)N[C@H]1Cc2cn(nn2)CCCC[C@@H](C(=O)N[C@@H](CCCCN)C(=O)N[C@@H](CCC(=O)O)C(=O)N[C@@H](CC(C)C)C(=O)N[C@@H](CCC(N)=O)C(=O)N[C@@H](CC(=O)O)C(N)=O)NC(=O)[C@H](CC(C)C)NC(=O)[C@H](CC(N)=O)NC(=O)[C@H](CCC(N)=O)NC1=O)[C@@H](C)CC (stereo partly shown) [5a-IRDye]
binding of conjugate to cells (BxPC-3 cells): could bind, in a dose dependent manner | binding of conjugate to cells (5637 cells [2]): could bind, in a dose dependent manner | tumor signal twenty-four hours after injection [4]: significant signal was still visible | time of maximal tumor uptake after injection ([4]; iv): 1 h | tissue to tissue ratio at 24 h (in vivo): 12 | binding of conjugate to cells (HUVEC): little or not

*Qdot: control nanoconjugate without the targeting ligand; Qdot coupled to control peptide cyclic head-to-tail c(CGARAG) (cyclo(CGARAG); also: coupled to Qdot (control nanoconjugate)) [reference compound]
binding of Qdot conjugate to cells (5637 cells [5]): not

FETLRGEERILSILRHQNLLKELQD [peptide 2]
Ki (αvβ5): > 50 µM | binding to αvβ6 (αvβ6 [6]): unable to bind these integrins | Ki (α5β1): > 50 µM | Ki (αvβ8 [7]): > 50 µM | Ki (αvβ3): > 50 µM | binding to αvβ8 (αvβ8 [8]): unable to bind these integrins | Ki (αvβ6 [9]; Table 3a, Ki of 2 as determined in [21], read-out: Ki αvβ6): > 50 µM | Ki (αvβ6 [9]; peptide with RGE instead of RGD, read-out: Ki): > 50 µM
